Assay [1] deals with T1, Muscarinic acetylcholine receptor M1 (Homo sapiens) (UniProt P11229).
T1 sequence (whole entry): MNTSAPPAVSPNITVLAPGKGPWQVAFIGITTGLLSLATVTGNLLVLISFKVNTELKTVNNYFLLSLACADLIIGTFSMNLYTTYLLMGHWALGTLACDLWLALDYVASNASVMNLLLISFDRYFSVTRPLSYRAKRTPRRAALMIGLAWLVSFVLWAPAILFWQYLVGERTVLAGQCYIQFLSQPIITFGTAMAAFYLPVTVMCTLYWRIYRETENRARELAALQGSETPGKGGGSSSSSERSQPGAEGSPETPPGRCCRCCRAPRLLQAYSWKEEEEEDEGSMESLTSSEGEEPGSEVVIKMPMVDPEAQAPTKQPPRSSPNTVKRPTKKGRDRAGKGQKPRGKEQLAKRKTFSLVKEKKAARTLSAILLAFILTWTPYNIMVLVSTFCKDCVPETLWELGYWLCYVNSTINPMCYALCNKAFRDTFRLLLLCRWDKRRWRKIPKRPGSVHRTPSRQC
The assay can be described thus: Compound was evaluated for binding affinity by displacement of [3H]pirenzepine from muscarinic M1 receptor at concentration 100 nM.

Assay [2] concerns the target T2, Muscarinic acetylcholine receptor M2 (Homo sapiens) (UniProt P08172).
T2 sequence (whole entry): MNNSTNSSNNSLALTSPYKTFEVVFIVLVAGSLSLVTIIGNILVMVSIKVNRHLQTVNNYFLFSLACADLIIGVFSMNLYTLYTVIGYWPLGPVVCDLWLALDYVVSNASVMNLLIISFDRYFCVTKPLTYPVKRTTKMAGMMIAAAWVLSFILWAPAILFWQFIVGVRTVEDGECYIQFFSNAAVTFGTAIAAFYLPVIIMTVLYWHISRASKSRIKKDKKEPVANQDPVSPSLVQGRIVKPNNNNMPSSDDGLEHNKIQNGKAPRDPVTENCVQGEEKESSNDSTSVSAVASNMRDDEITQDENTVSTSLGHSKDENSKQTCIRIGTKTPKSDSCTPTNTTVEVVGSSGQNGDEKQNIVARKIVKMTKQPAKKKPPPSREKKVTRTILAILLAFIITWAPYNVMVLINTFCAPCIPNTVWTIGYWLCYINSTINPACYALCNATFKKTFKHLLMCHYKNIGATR
Briefly: Compound was evaluated for binding affinity by displacement of [3H]NMS from muscarinic M2 receptor at concentration 100 nM. A general note: Displacement assays read how much labelled ligand stays bound in the presence of the test substance.

Assay [3] is described as follows: In vitro inhibitory activity against gamma-aminobutyric acid (GABA) uptake. The format is functional.

As usually defined, the inhibition is how much of the control response was suppressed. What is called pIC50 is the IC50 on a negative log10 scale, so that one unit is a factor of ten. Low values mean a large IC50, high ones a small IC50.

pIC50: −log10 of the molar value.

In the case of `CCOC(=O)C1=CCC(COCc2ccc(-c3ccccc3)cc2)NC1` (stereo unspecified), the inhibition in assay [1] worked out at 12%; in assay [2] it was 14%.
`O=C(O)C1=CCC(CCC(c2ccccc2)c2ccccc2)NC1` (stereo unspecified) showed a pIC50 in assay [3] of 7.00.
The same measure, in the same setting: to `O=C(O)C1=CCCN(CCC=C(c2ccccc2)c2ccccc2)C1` belongs 6.68.
On to `O=C(O)C1=CCC(COCc2ccc(-c3ccccc3)cc2)NC1` (stereo unspecified), for which the inhibition in assay [1] came out at 57%; in assay [2] it was 59%.

Source of the values: ChEMBL document CHEMBL1128951, “6-(4-Phenyl-benzyloxy-methyl) guvacine. Synthesis, GABA uptake inhibitor and muscarinic properties” (Bioorg Med Chem Lett, 1996).
